Experimental data taken from US9306235B2, “Redox flow battery” (SAMSUNG ELECTRONICS CO., LTD., priority 2010, dated 2016).

Test: Evaluation of organic electrolyte solubility together with a supporting electrolyte
Assay type: physicochemical
Conditions: generation of precipitates identified
Protocol: In the case where an organic electrolyte is used together with a supporting electrolyte, solubility of the organic electrolyte is evaluated. As the supporting electrolyte, TEABF4 and SBPBF4 are added to each of 0.0M, 0.2M, and 0.5M propylene carbonate aliquots, and then 1.2M Fe(bpy)3(BF4)2 is added to a final volume of 10 mL. The generation of precipitates is identified for each case.

[1] = supporting electrolyte 0.0 Mole (0.0M) in propylene carbonate
[2] = supporting electrolyte 0.2 Mole (0.2M) in propylene carbonate
[3] = supporting electrolyte 0.5 Mole (0.5M) in propylene carbonate

Row | SMILES | Solubility of 1.2M Fe(bpy)3(BF4)2 [1] | Solubility of 1.2M Fe(bpy)3(BF4)2 [2] | Solubility of 1.2M Fe(bpy)3(BF4)2 [3]
1 | C1CC[N+]2(C1)CCCC2.F[B-](F)(F)F [SBPBF4, spiro-(1,1′)-bipyrrolidiniumtetrafluoroborate] | Soluble | Soluble | Soluble
2 | CC[N+](CC)(CC)CC.F[B-](F)(F)F [TEABF4, tetraethylammoniumtetrafluoroborate] | Soluble | Precipitation | Precipitation
